Test [1] concerns HEK293 cells. In words: HEK293 cell viability assay (CellTiter-Glo). Format: cell-based. Conditions: Homo sapiens, HEK293, 72 h, 3-day exposure, 0 to 10 μM. On the procedure: Cytotoxicity on HEK293 Cells Proliferation (HEK293 Cell Viability Assay)
HEK293 cell line were used in this study. Cell lines were maintained in DMEM (Dulbecco's Modified Eagle Medium) supplemented with 10% fetal bovine serum (Thermo Fisher), 50 units/mL penicillin and streptomycin (Thermo Fisher) and kept at 37° C. in a humidified atmosphere containing 5% CO2 in air. Cell lines were reinstated from frozen stocks that were laid down within 50 passages from the original cells purchased. The growth-inhibitory activity of compounds in HEK293 cells was determined using CellTiter-Glo luminescent cell viability assay (Promega). 3000 cells per well were seeded into a 96-well plate to ensure logarithmic growth for 3 days treatment period. Cells were treated with a 10-point dilution series. The final compound concentration was from 0 to 10 μM. Following a 3-day exposure to the test compounds, 30 μL of CellTiter-Glo reagent was added into 100 μL cell culture medium per well. Mixture was mixed on an orbital shaker for 2 minutes to allow cell lysis, followed by 10 minutes of incubation at room temperature to allow development and stabilization of luminescent signal, which corresponded to the quantity of ATP and thus the quantity of metabolically active cells. Luminescent signal was measured using PHERAstar FS reader (BMG Labtech). IC50 values for cell viability were determined with Dotmatics.

Test [2] addresses T1, HPK1 kinase (aa1-346, Life Technologies) (Homo sapiens, UniProt Q92918).
T1 construct: HPK1 kinase (aa1-346, Life Technologies); purchased Life Technologies
T1 sequence (Q92918 1-346): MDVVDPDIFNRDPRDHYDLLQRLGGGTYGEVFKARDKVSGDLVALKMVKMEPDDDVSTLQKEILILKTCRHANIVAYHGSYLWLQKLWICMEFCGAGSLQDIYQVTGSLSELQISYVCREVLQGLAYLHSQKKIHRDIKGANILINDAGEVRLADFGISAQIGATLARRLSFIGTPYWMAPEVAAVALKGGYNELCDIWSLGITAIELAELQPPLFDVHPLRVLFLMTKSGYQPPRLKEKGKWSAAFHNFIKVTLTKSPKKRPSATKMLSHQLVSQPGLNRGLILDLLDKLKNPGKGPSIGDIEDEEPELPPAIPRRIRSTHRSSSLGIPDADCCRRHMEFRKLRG
In words: HPK1 Kinase Activity Assay at 1 mM ATP (TR-FRET). The following applies: HPK1 40 nM, read-out: Enzymatic activity IC50. In kind it is biochemical. As for the experimental part: HPK1 Kinase Activity Assay at 1 mM ATP
Compounds disclosed herein were tested for inhibition of HPK1 kinase (aa1-346, Life Technologies) activity in assays based on the time-resolved fluorescence-resonance energy transfer (TR-FRET) methodology. The assays were carried out in 384-well low volume black plates in a reaction mixture containing HPK1 kinase (40 nM), 1 mM ATP, 0.5 μM STK1 substrate and 0-10 μM compound in buffer containing 50 mM HEPES, 0.01% BSA, 0.1 mM Orthovanadate, 10 mM MgCl2, 1 mM DTT, pH=7.0, 0.005% Tween-20. The kinase was incubated with the compounds disclosed herein or DMSO for 60 minutes at room temperature and the reaction was initiated by the addition of ATP and STK1 substrate. After reaction at room temperature for 120 minutes, an equal volume of stop/detection solution was added according to the manufacturer's instruction (CisBio). The stop/detection solution contained STK Antibody-Cryptate and XL665-conjugated streptavidin in Detection Buffer. The TR-FRET signals (ratio of fluorescence emission at 665 nm over emission at 620 nm with excitation at 337 nm wavelength) were recorded on a PHERAstar FS plate reader (BMG Labtech). Phosphorylation of STK1 substrate led to the binding of STK Antibody-Cryptate to the biotinylated STK1 substrate, which places fluorescent donor (Eu^3+ cryptate) in close proximity to the accepter (Streptavidin-XL665), thus resulting in a high degree of fluorescence resonance energy transfer. The inhibition of HPK1 in presence of increasing concentrations of compounds was calculated based on the ratio of fluorescence at 665 nm to that at 620 nm. The IC50 for each compound was derived from fitting the data to the four-parameter logistic equation by Graphpad Prism software.
In general terms: TR-FRET usually uses a lanthanide donor and a delayed reading to cut background.

Data on 18 compounds can be found in US12454534B2, “Pyrrolo[2,3-b]pyrazines as HPK1 inhibitor and the use thereof” (BEIGENE, LTD., priority 2019, dated 2025).

The term IC50 denotes the point on the concentration scale where inhibition reaches its midpoint. Turning to `Cc1cc(-c2cnc3[nH]cc(-c4ccc(C(=O)N(C)C)cc4)c3n2)cc2c1CCN(C)C2` [Example 1, 4-[2-(2,5-dimethyl-3,4-dihydro-1H-isoquinolin-7-yl)-5H-pyrrolo[2,3-b]pyrazin-7-yl]-N, N-dimethylbenzamide], the IC50 amounted to 3650 nM in test [1] and 24 nM in test [2].
With `Cc1cc(-c2c[nH]c3ncc(-c4cc(C)c5c(c4)CN(C)CC5)nc23)ccc1C(=O)N(C)C` [Example 2, 4-(2-(2,5-dimethyl-1,2,3,4-tetrahydroisoquinolin-7-yl)-5H-pyrrolo[2,3-b]pyrazin-7-yl)-N, N, 2-trimethylbenzamide], the half-inhibitory concentration (IC50) in test [1] is 3340 nM; in test [2] it was 26 nM.
For `COc1cc(-c2cnc3[nH]cc(-c4ccc(C(=O)N(C)C[C@H](C)O)cc4)c3n2)cc2c1CN(C)CC2` [Example 3, (S)—N-(2-hydroxypropyl)-4-(2-(8-methoxy-2-methyl-1,2,3,4-tetrahydroisoquinolin-6-yl)-5H-pyrrolo[2,3-b]pyrazin-7-yl)-N-methylbenzamide], the IC50 worked out at 1270 nM in test [1] and 12 nM in test [2].
Take `COc1cc(-c2cnc3[nH]cc(-c4ccc(C(=O)N(C)C[C@H](C)O)c(C)c4)c3n2)cc2c1CN(C)CC2` [Example 6, (S)—N-(2-hydroxypropyl)-4-(2-(8-methoxy-2-methyl-1,2,3,4-tetrahydroisoquinolin-6-yl)-5H-pyrrolo[2,3-b]pyrazin-7-yl)-N, 2-dimethylbenzamide]: the half-maximal inhibitory concentration (IC50) was determined as 5560 nM in test [1] and 32 nM in test [2].
The matching figures for `COc1cc(-c2cnc3[nH]cc(-c4ccc(C(=O)N(C)C[C@@H](C)O)cc4)c3n2)cc2c1CN(C)CC2` [Example 10, (R)—N-(2-hydroxypropyl)-4-(2-(8-methoxy-2-methyl-1,2,3,4-tetrahydroisoquinolin-6-yl)-5H-pyrrolo[2,3-b]pyrazin-7-yl)-N-methylbenzamide]: 1420 nM and 11 nM.
As for `Cc1cc(-c2cnc3[nH]cc(-c4ccc(C(=O)N(C)C)cc4)c3n2)cc2c1CCN(CCC(=O)N[C@H]1CC[C@H](O)CC1)C2` [Example 48, 4-(2-(2-(3-(((1r, 4r)-4-hydroxycyclohexyl)amino)-3-oxopropyl)-5-methyl-1,2,3,4-tetrahydroisoquinolin-7-yl)-5H-pyrrolo[2,3-b]pyrazin-7-yl)-N, N-dimethylbenzamide], the IC50 in test [2] was 65 nM.
On to `Cc1cc(-c2cnc3[nH]cc(-c4ccc(C(=O)N(C)C)cc4)c3n2)cc2c1CCN(CCC(=O)NCCN1CCN(C)CC1)C2` [Example 49, N, N-dimethyl-4-(2-(5-methyl-2-(3-((2-(4-methylpiperazin-1-yl)ethyl)amino)-3-oxopropyl)-1,2,3,4-tetrahydroisoquinolin-7-yl)-5H-pyrrolo[2,3-b]pyrazin-7-yl)benzamide], for which the half-maximal inhibitory concentration (IC50) in test [2] worked out at 67 nM.
The same measure, in the same setting: next, `Cc1cc(-c2c[nH]c3ncc(-c4cc(C)c5c(c4)CN(CCN4CCOCC4)CC5)nc23)ccc1C(=O)N(C)C[C@@H]1CCOC1` [Example 50, (S)—N, 2-dimethyl-4-(2-(5-methyl-2-(2-morpholinoethyl)-1,2,3,4-tetrahydroisoquinolin-7-yl)-5H-pyrrolo[2,3-b]pyrazin-7-yl)-N-((tetrahydrofuran-3-yl)methyl)benzamide]: 137 nM.
Same read-out and setting: to `Cc1cc(-c2cnc3[nH]cc(-c4ccc(C(=O)N(C)C[C@@H]5CCOC5)cc4)c3n2)cc2c1CCN(CCN1CCOCC1)C2` [Example 51, (S)—N-methyl-4-(2-(5-methyl-2-(2-morpholinoethyl)-1,2,3,4-tetrahydroisoquinolin-7-yl)-5H-pyrrolo[2,3-b]pyrazin-7-yl)-N-((tetrahydrofuran-3-yl)methyl)benzamide] belongs 36 nM.
On the same count and under the same terms, next, `COCCCNC(=O)CN1CCc2c(C)cc(-c3cnc4[nH]cc(-c5ccc(C(=O)N(C)C)c(C)c5)c4n3)cc2C1` [Example 52, 4-(2-(2-(2-((3-methoxypropyl)amino)-2-oxoethyl)-5-methyl-1,2,3,4-tetrahydroisoquinolin-7-yl)-5H-pyrrolo[2,3-b]pyrazin-7-yl)-N, N, 2-trimethylbenzamide]: 74 nM.
`Cc1cc(-c2c[nH]c3ncc(-c4cc(C)c5c(c4)CN(CCC(=O)N[C@@H]4CCCOC4)CC5)nc23)ccc1C(=O)N(C)C` [Example 53, (R)—N, N, 2-trimethyl-4-(2-(5-methyl-2-(3-oxo-3-((tetrahydro-2H-pyran-3-yl)amino)propyl)-1,2,3,4-tetrahydroisoquinolin-7-yl)-5H-pyrrolo[2,3-b]pyrazin-7-yl)benzamide]: the half-inhibitory concentration (IC50) in test [2] was 78 nM.
The same measure, in the same setting: next, `Cc1cc(-c2c[nH]c3ncc(-c4cc(C)c5c(c4)CN(CCC(=O)N[C@H]4CCC[C@H]4O)CC5)nc23)ccc1C(=O)N(C)C` [Example 54, 4-(2-(2-(3-(((1S, 2R)-2-hydroxycyclopentyl)amino)-3-oxopropyl)-5-methyl-1,2,3,4-tetrahydroisoquinolin-7-yl)-5H-pyrrolo[2,3-b]pyrazin-7-yl)-N, N, 2-trimethylbenzamide]: 68 nM; `Cc1cc(-c2c[nH]c3ncc(-c4cc(C)c5c(c4)CN(CCC(=O)NCC4CC4)CC5)nc23)ccc1C(=O)N(C)C` [Example 55, 4-(2-(2-(3-((cyclopropylmethyl)amino)-3-oxopropyl)-5-methyl-1,2,3,4-tetrahydroisoquinolin-7-yl)-5H-pyrrolo[2,3-b]pyrazin-7-yl)-N, N, 2-trimethylbenzamide]: 89 nM.
Same read-out and setting: to `Cc1cc(-c2c[nH]c3ncc(-c4cc(C)c5c(c4)CN(CCC(=O)N[C@H]4CC[C@H](O)C4)CC5)nc23)ccc1C(=O)N(C)C` [Example 56, 4-(2-(2-(3-(((1S, 3S)-3-hydroxycyclopentyl)amino)-3-oxopropyl)-5-methyl-1,2,3,4-tetrahydroisoquinolin-7-yl)-5H-pyrrolo[2,3-b]pyrazin-7-yl)-N, N, 2-trimethylbenzamide] belongs 93 nM; to `COc1cc(-c2cnc3[nH]cc(-c4ccc(C(=O)N(C)C[C@@H]5CCOC5)cc4)c3n2)cc2c1CN(C)CC2` [Example 57, (S)-4-(2-(8-methoxy-2-methyl-1,2,3,4-tetrahydroisoquinolin-6-yl)-5H-pyrrolo[2,3-b]pyrazin-7-yl)-N-methyl-N-((tetrahydrofuran-3-yl)methyl)benzamide], 14 nM; to `COc1cc(-c2cnc3[nH]cc(-c4ccc(C(=O)N(C)C)cc4)c3n2)cc2c1CN(CC(C)(C)O)CC2` [Example 58, 4-(2-(2-(2-hydroxy-2-methylpropyl)-8-methoxy-1,2,3,4-tetrahydroisoquinolin-6-yl)-5H-pyrrolo[2,3-b]pyrazin-7-yl)-N, N-dimethylbenzamide], 21 nM.
Take `Cc1cc(-c2cnc3[nH]cc(-c4ccc(C(=O)N(C)CCC#N)cc4)c3n2)cc2c1CCN(C)C2` [Example 59, N-(2-cyanoethyl)-4-(2-(2,5-dimethyl-1,2,3,4-tetrahydroisoquinolin-7-yl)-5H-pyrrolo[2,3-b]pyrazin-7-yl)-N-methylbenzamide]: the concentration for half-maximal inhibition (IC50) in test [2] was 16 nM.
`[2H]C([2H])([2H])N(C(=O)c1ccc(-c2c[nH]c3ncc(-c4cc(C)c5c(c4)CCN(C)C5)nc23)cc1C)C([2H])([2H])[2H]` [Example 128, 4-(2-(2,8-dimethyl-1,2,3,4-tetrahydroisoquinolin-6-yl)-5H-pyrrolo[2,3-b]pyrazin-7-yl)-2-methyl-N,N-bis(methyl-d3)benzamide]: in test [2], the IC50 stood at 21 nM.
